Experimental data: PubChem BioAssay AID488786 (NMMLSC, 2010)
Active and inactive are the calls of the source.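 Rule for the calls: active = compounds whose fitted off-rate of the fluorescent probe exceeds 0.05 per second; inactive = the rest.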

Biological target: Integrin alpha-4 (Homo sapiens) (UniProt P13612)
Experiment: LDV-FITC off-rate from VLA-4, SAR follow-up, mechanism study for VLA-4 allosteric modulator project, U937 cells, flow cytometry (AID 488786)
Conditions: LDV-FITC dissociation rate

Integrin alpha-4 (Homo sapiens), sequence (P13612 whole entry, looked up): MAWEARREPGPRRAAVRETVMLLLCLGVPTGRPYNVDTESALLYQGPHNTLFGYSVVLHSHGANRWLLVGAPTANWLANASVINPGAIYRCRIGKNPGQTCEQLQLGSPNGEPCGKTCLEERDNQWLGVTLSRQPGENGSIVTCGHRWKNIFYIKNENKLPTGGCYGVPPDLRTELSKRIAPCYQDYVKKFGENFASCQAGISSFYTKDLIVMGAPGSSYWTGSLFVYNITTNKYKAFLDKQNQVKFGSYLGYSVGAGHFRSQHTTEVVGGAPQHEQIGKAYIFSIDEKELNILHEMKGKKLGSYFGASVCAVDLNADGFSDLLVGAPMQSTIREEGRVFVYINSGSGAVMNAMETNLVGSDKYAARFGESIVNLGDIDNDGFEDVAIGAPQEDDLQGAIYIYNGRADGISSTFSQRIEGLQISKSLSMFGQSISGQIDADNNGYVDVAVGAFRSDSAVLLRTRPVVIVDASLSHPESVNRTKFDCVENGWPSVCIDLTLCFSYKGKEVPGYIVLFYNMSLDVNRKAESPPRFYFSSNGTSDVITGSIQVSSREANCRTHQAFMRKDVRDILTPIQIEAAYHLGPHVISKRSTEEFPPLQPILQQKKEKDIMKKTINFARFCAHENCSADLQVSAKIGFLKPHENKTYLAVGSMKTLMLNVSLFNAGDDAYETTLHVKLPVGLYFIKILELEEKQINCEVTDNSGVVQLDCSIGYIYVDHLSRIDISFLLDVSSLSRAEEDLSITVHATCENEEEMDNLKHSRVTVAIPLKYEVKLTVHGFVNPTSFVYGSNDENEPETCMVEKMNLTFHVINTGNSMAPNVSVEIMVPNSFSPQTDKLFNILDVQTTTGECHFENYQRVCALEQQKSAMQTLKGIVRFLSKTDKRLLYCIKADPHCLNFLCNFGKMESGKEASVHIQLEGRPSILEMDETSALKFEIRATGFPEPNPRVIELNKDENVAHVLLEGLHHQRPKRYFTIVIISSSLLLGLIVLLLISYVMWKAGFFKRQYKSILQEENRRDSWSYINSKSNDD

Compound	outcome
CCOC(=O)COc1ccccc1/C=C\[N+](=O)[O-]	inactive
Cc1ccc(NC(=O)c2cc(N3C(=O)CCC3=O)ccc2N2CCOCC2)cc1Cl	inactive
COC(=O)C1OC2(OC1C(=O)OC)c1ccccc1-c1ccccc12 (centres undefined)	inactive
COC(=O)[C@@H]1[C@@H](C(=O)OC)C2(c3ccccc3-c3ccccc32)N(c2ccc(Cl)cc2)N1C#N	inactive
O=C1NC(=O)C2(N1)c1ccccc1-c1ccccc12	inactive
CC(NC(=O)/C(C#N)=C/c1ccc(Cl)c([N+](=O)[O-])c1)c1ccccc1 (centres undefined)	inactive
O=C(COc1ccc(/C=N/NC(=O)c2cc3ccccc3o2)cc1Cl)Nc1ccccc1	inactive
COC(=O)C1CN(C#N)N(c2ccc(Cl)cc2)C12c1ccccc1-c1ccccc12 (centres undefined)	inactive
FC(F)Oc1ccc(C2=Nn3c(nnc3-c3ccccc3Cl)SC2)cc1OCC1CC1	inactive
CCOC(=O)/C(=C\c1ccc(OC(F)F)cc1)C1=Nn2c(nnc2-c2ccc(Cl)cc2)SC1	inactive
CCOCCCNC(=O)/C(C#N)=C/c1ccc(Cl)c([N+](=O)[O-])c1	inactive
Cc1ccc(NC(=O)c2cc(N3C(=O)CCC3=O)ccc2N2CCOCC2)cc1	inactive

Same assay, conditions: at 100 µM, hits give high values

Compound	dissociation rate
COc1cccc(-c2sc3ccccc3c2-c2ccc(OCCN(C)C)cc2)c1	0.06 s⁻¹
c1ccc2c(-c3ccc(OCCN4CCCCC4)cc3)c(-c3ccsc3)sc2c1	0.016 s⁻¹ (inactive)
CN(C)CCOc1ccc(-c2c(-c3ccccc3)sc3ccccc23)cc1	0.06 s⁻¹
c1ccc2c(-c3ccc(OCCN4CCCC4)cc3)c(-c3ccsc3)sc2c1	0.048 s⁻¹ (inactive)
c1ccc(-c2sc3ccccc3c2-c2ccc(OCCN3CCCC3)cc2)cc1	0.055 s⁻¹
COc1cccc(-c2sc3ccccc3c2-c2ccc(OCCN3CCCC3)cc2)c1	0.065 s⁻¹
COc1ccc(-c2sc3ccccc3c2-c2ccc(OCCN(C)C)cc2)cc1	0.08 s⁻¹
